System: Prx1
Test: Immunoblot of Prx1 after transient Prx1 siRNA transfection of LNCaP cells
Assay type: cell-based, human
Details: 75 nM siRNA

## 11838: Ambion siRNA directed against exon 6 of Prx1; sense 5'-GGCUACUGGUUUGUAUGAUTT-3' (antisense AUCAUACAAACCAGUAGCCTG; chemistry not given here) [compound 11838]
  expression of Prx1 (immunoblot): essentially abolished the expression of Prx1

Reference: publication PMC2774234 (Molecular cancer research : MCR, 2009)
